10 molecules from patent US12404285B2, “KRAS G12D proteolysis targeting chimeras” (PAQ Therapeutics Inc., priority 2022, dated 2025) can be followed below.

Molecules are shown by their SMILES.

For this experiment, the target named is T1, KRAS in AGS cells (KRAS G12D mutant cell line) or LS180 cells (KRAS G12D mutant cell line) (Homo sapiens, UniProt P01116, G12D).
T1 construct: CRL-187 (LS180) (so in the source); host or cells: AGS or LS180 cells
T1 sequence (P01116 1-188 isoform P01116-2 G12D): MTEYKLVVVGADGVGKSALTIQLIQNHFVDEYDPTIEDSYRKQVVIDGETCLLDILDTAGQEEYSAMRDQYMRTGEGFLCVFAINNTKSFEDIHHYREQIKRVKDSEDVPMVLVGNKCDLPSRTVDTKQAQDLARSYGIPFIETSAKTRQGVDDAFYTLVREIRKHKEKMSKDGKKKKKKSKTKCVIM
Put plainly: KRAS Western Blot (WB) assay. It is filed as cell-based. Conditions: KRAS degradation, 24 hours incubation, normalized to β-actin. The protocol:
Day 1. Seeded AGS cells (KRAS G12D mutant cell line, ATCC, CRL-1739) or LS180 cells (KRAS G12D mutant cell line, ATCC, CRL-187) into 6-well plates (cell density: 3×10^5 cells/well/2 ml medium) in Ham's F-12 medium (Invitrogen, 11765-054) or Eagle's Minimum Essential Medium (ATCC, 30-2003) and incubated overnight at 37° C. and 5% CO2.
Day 2. Aspirated 1 ml medium from each well and added 1 ml medium containing DMSO or test compound into the well to achieve the desired final concentration. Mixed well by gentle shaking and incubated for 24 hours.
Day 3. Aspirated media from plates; washed cells with 2 ml 4° C. PBS (Solarbio, P1020-500) and aspirated the PBS. Then added 100 μl 4° C. […] lysis buffer (Boston BioProducts BP-115D) with protease and phosphatase inhibitors at vendor recommended concentrations (Roche 05892791001 and 04906837001) into each well to lyse the cells, and incubated for 20 minutes at 4° C. Cell lysate was collected into 1.5 ml Eppendorf tube, and the lysate was sonicated at 4° C. for 2 minutes (5 second pulse at 30% power with 10 second intermissions). The lysate was centrifuged at 12,000 rpm for 15 minutes at 4° C. The supernatant was transferred to a fresh Eppendorf tube, and protein concentration was quantified using a BCA kit (Solarbio, PC0020-500). Mixed the cell lysate and 5×NuPAGE SDS Loading Buffer (Beyotime, P0015L), and heated at 95° C. for 10 minutes in a heat block. Prepared samples were stored at −80° C. until SDS-PAGE procedure.
Day 4. Loaded 15 μg protein from each sample onto NuPAGE® Novex 4-12% Bis-Tris Midi Gel, 26 W (Invitrogen, WG1403BOX) and ran the gel at 120V for 1.5 hours in 1×NuPAGE® MOPS SDS Running Buffer (Novex, NP0001). Electrotransferred to nitrocellulose membrane using dry transfer method (iBlot 2 Transfer Stacks, nitrocellulose, IB23001) with a program consisting of 20V for 1 minute, 23V for 4 minutes and 25V for 2 minutes. Blocked the membrane with 5% BSA (Solarbio, A8020) in 1×TBST (CST, 9997S) for 1 hour at room temperature. Incubated with KRAS antibody (LSBio, LS-C175665, clone 2C1) at 1:1000 dilution and β-actin antibody at 1:1000 dilution (CST, 4970S) in TBST containing 1% BSA (Solarbio, A8020) at 4° C. overnight.
Day 5. Washed nitrocellulose membrane three times with 1×TBST for 10 minutes each at room temperature. Incubated with fluorescently labeled secondary antibodies at 1:5000 dilution in TBST containing 1% BSA (anti-rabbit IgG, Licor, 926-32211; anti-mouse IgG, LI-COR, 926-68070) for 1 hour at room temperature. Washed membrane three times with TBST, 10 minutes each. Scanned the membrane on LiCOR scanner for fluorescent signal(s) and quantified KRAS bands and β-actin bands for normalization.
The data are reported in Table 2, wherein “A” indicates a DC50 of less than 1 μM; “B” indicates a DC50 of greater than or equal to 1 μM and less than 10 μM; and “C” indicates a DC50 of greater than or equal to 10 μM.
On the technique in general: A western blot detects proteins with antibodies after separation by electrophoresis.
Take `C#Cc1c(F)ccc2cc(O)cc(-c3ncc4c(N5CC6CCC(C5)N6)nc(OC[C@@]56CCCN5[C@H](COC(=O)NCCCCCCNc5ccc7c(c5)C(=O)N(C5CCC(=O)NC5=O)C7=O)CC6)nc4c3F)c12` (stereo partly drawn) [Compound 017, [(3S,8S)-8-[[4-(3,8-diazabicyclo[3.2.1]octan-3-yl)-7-(8-ethynyl-7-fluoro-3-hydroxy-1-naphthyl)-8-fluoro-pyrido[4,3-d]pyrimidin-2-yl]oxymethyl]-1,2,3,5,6,7-hexahydropyrrolizin-3-yl]methyl N-[6-[[2-(2,6-dioxo-3-piperidyl)-1,3-dioxo-isoindolin-5-yl]amino]hexyl]carbamate]: the DC50 result was “B (DC50 greater than or equal to 1 μM and less than 10 μM)”.
Under `C#Cc1c(F)ccc2cc(O)cc(-c3ncc4c(N5CC6CCC(C5)N6)nc(OC[C@@]56CCCN5[C@H](COC(=O)NCCCCCCCCNc5cccc7c5C(=O)N(C5CCC(=O)NC5=O)C7=O)CC6)nc4c3F)c12` (stereo partly shown) [Compound 018] stands “B (DC50 greater than or equal to 1 μM and less than 10 μM)”; under `C#Cc1c(F)ccc2cc(O)cc(-c3ncc4c(N5CC6CCC(C5)N6)nc(OC[C@@]56CCCN5[C@H](COC(=O)NCCCCNc5cccc7c5C(=O)N(C5CCC(=O)NC5=O)C7=O)CC6)nc4c3F)c12` (stereo partly drawn) [Compound 019, [(3S,8S)-8-[[4-(3,8-diazabicyclo[3.2.1]octan-3-yl)-7-(8-ethynyl-7-fluoro-3-hydroxy-1-naphthyl)-8-fluoro-pyrido[4,3-d]pyrimidin-2-yl]oxymethyl]-1,2,3,5,6,7-hexahydropyrrolizin-3-yl]methyl-N-[4-[[2-(2,6-dioxo-3-piperidyl)-1,3-dioxo-isoindolin-4-yl]amino]butyl]carbamate], “C (DC50 greater than or equal to 10 μM)”; under `C#Cc1c(F)ccc2cc(O)cc(-c3ncc4c(N5CC6CCC(C5)N6)nc(OC[C@@]56CCCN5[C@H](COC(=O)NCCCNc5cccc7c5C(=O)N(C5CCC(=O)NC5=O)C7=O)CC6)nc4c3F)c12` (stereo partly drawn) [Compound 020, [(3S,8S)-8-[[4-(3,8-diazabicyclo[3.2.1]octan-3-yl)-7-(8-ethynyl-7-fluoro-3-hydroxy-1-naphthyl)-8-fluoro-pyrido[4,3-d]pyrimidin-2-yl]oxymethyl]-1,2,3,5,6,7-hexahydropyrrolizin-3-yl]methylN-[3-[[2-(2,6-dioxo-3-piperidyl)-1,3-dioxo-isoindolin-4-yl]amino]propyl]carbamate], “C (DC50 greater than or equal to 10 μM)”.
Take `C#Cc1c(F)ccc2cc(O)cc(-c3ncc4c(N5CC6CCC(C5)N6)nc(OC[C@@]56CCCN5[C@H](COC(=O)NCCCCCCNc5cccc7c5C(=O)N(C5CCC(=O)NC5=O)C7=O)CC6)nc4c3F)c12` (stereo partly drawn) [Compound 021, [(3S,8S)-8-[[4-(3,8-diazabicyclo[3.2.1]octan-3-yl)-7-(8-ethynyl-7-fluoro-3-hydroxy-1-naphthyl)-8-fluoro-pyrido[4,3-d]pyrimidin-2-yl]oxymethyl]-1,2,3,5,6,7-hexahydropyrrolizin-3-yl]methylN-[6-[[2-(2,6-dioxo-3-piperidyl)-1,3-dioxo-isoindolin-4-yl]amino]hexyl]carbamate]: the DC50 entry is “B (DC50 greater than or equal to 1 μM and less than 10 μM)”.
Under `C#Cc1c(F)ccc2cc(O)cc(-c3ncc4c(N5CC6CCC(C5)N6)nc(OC[C@]56CCCN5[C@@H](COC(=O)NCCCCCCNc5cccc7c5C(=O)N(C5CCC(=O)NC5=O)C7=O)CC6)nc4c3F)c12` (stereo partly drawn) [Compound 022, [(3R,8R)-8-[[4-(3,8-diazabicyclo[3.2.1]octan-3-yl)-7-(8-ethynyl-7-fluoro-3-hydroxy-1-naphthyl)-8-fluoro-pyrido[4,3-d]pyrimidin-2-yl]oxymethyl]-1,2,3,5,6,7-hexahydropyrrolizin-3-yl]methyl N-[6-[[2-(2,6-dioxo-3-piperidyl)-1,3-dioxo-isoindolin-4-yl]amino]hexyl]carbamate] stands “C (DC50 greater than or equal to 10 μM)”; under `C#Cc1c(F)ccc2cc(O)cc(-c3ncc4c(N5CC6CCC(C5)N6)nc(OC[C@]56CCCN5[C@@H](COC(=O)NCCOCCOCCNc5cccc7c5C(=O)N(C5CCC(=O)NC5=O)C7=O)CC6)nc4c3F)c12` (stereo partly shown) [Compound 025], “C (DC50 greater than or equal to 10 μM)”; under `C#Cc1c(F)ccc2cc(O)cc(-c3ncc4c(N5CC6CCC(C5)N6)nc(OC[C@@]56CCCN5[C@H](COC(=O)NCCOCCOCCOCCNc5cccc7c5C(=O)N(C5CCC(=O)NC5=O)C7=O)CC6)nc4c3F)c12` (stereo partly drawn) [Compound 027, [(3R,8R)-8-[[4-(3,8-diazabicyclo[3.2.1]octan-3-yl)-7-(8-ethynyl-7-fluoro-3-hydroxy-1-naphthyl)-8-fluoro-pyrido[4,3-d]pyrimidin-2-yl]oxymethyl]-1,2,3,5,6,7-hexahydropyrrolizin-3-yl]methyl N-[2-[2-[2-[2-[[2-(2,6-dioxo-3-piperidyl)-1,3-dioxo-isoindolin-4-yl]amino]ethoxy]ethoxy]ethoxy]ethyl]carbamate], “C (DC50 greater than or equal to 10 μM)”.
For `C#Cc1c(F)ccc2cc(O)cc(-c3ncc4c(N5CC6CCC(C5)N6)nc(OC[C@@]56CCCN5[C@H](COC(=O)NCCOCCOCCOCCNc5cccc7c5C(=O)N(C5CCC(=O)NC5=O)C7=O)CC6)nc4c3F)c12` (stereo partly drawn) [Compound 028, [(3S,8S)-8-[[4-(3,8-diazabicyclo[3.2.1]octan-3-yl)-7-(8-ethynyl-7-fluoro-3-hydroxy-1-naphthyl)-8-fluoro-pyrido[4,3-d]pyrimidin-2-yl]oxymethyl]-1,2,3,5,6,7-hexahydropyrrolizin-3-yl]methylN-[2-[2-[2-[2-[[2-(2,6-dioxo-3-piperidyl)-1,3-dioxo-isoindolin-4-yl]amino]ethoxy]ethoxy]ethoxy]ethyl]carbamate] the value was “C (DC50 greater than or equal to 10 μM)”; for `C#Cc1c(F)ccc2cccc(-c3ncc4c(N5CC6CCC(C5)N6)nc(OC[C@@]56CCCN5[C@H](COC(=O)NCCCCCCCCc5ccc7c(c5)n(C)c(=O)n7C5CCC(=O)NC5=O)CC6)nc4c3F)c12` (stereo partly drawn) [Compound 029, [(3S,8S)-8-[[4-(3, example 208-diazabicyclo[3.2.1]octan-3-yl)-7-(8-ethynyl-7-fluoro-1-naphthyl)-8-fluoro-pyrido[4,3-d]pyrimidin-2-yl]oxymethyl]-1,2,3,5,6,7-hexahydropyrrolizin-3-yl]methyl N-[8-[1-(2,6-dioxo-3-piperidyl)-3-methyl-2-oxo-benzimidazol-5-yl]octyl]carbamate], “A (DC50 less than 1 μM)”.
